Results published in ChEMBL document CHEMBL5505983, “Design, synthesis, and molecular modeling studies of novel 2-quinolone-1,2,3-triazole-α-aminophosphonates hybrids as dual antiviral and antibacterial agents” (Eur J Med Chem, 2024).
Values after ≈ are worked out from the molar mass of the structure shown.

Key:
Pseudomonas aeruginosa [1] = experiment: Antibacterial activity against Pseudomonas aeruginosa CIP A22 assessed as reduction in bacterial growth by micro-broth dilution method; type: functional
Human rhinovirus sp. [2] = experiment: Antiviral activity against Human rhinovirus B14 infected in human HeLa-RH cells assessed as inhibition of cytopathic effect by microscopy based analysis; type: functional, organism-based
Escherichia coli [3] = experiment: Bactericidal activity against Escherichia coli CIP 53154; type: functional
[4] = Cytotoxicity against human Huh-7 cells; type: toxicity, cell-based
[5] = Selectivity index, ratio of CC50 for African green monkey Vero A cells to IC50 for CHIKV infected in African green monkey Vero A cells; type: toxicity; conditions: read-out: Ratio CC50/IC50
Zika virus = experiment: Antiviral activity against Zika virus infected in african green monkey Vero E6 cells assessed as inhibition of cytopathic effect by microscopy based analysis; type: functional, organism-based; conditions: Vero C1008
[6] = Cytotoxicity against human RD cells; type: toxicity, cell-based
Escherichia coli [7] = experiment: Ratio of MBC to MIC for Escherichia coli CIP 53154; type: functional
Staphylococcus aureus [8] = experiment: Antibacterial activity against Staphylococcus aureus CIP 54127 assessed as reduction in bacterial growth by micro-broth dilution method; type: functional
Staphylococcus aureus [9] = experiment: Bactericidal activity against Staphylococcus aureus CIP 54127; type: functional
Pseudomonas aeruginosa [10] = experiment: Bactericidal activity against Pseudomonas aeruginosa CIP A22; type: functional
Enterococcus faecalis [11] = experiment: Antibacterial activity against Enterococcus faecalis assessed as reduction in bacterial growth by micro-broth dilution method; type: functional
[12] = Cytotoxicity against African green monkey Vero E6 cells; type: toxicity, cell-based, Vero C1008; conditions: chlorocebus sabaeus
[13] = Cytotoxicity against human HeLa-RH cells; type: toxicity, cell-based
Staphylococcus aureus [14] = experiment: Ratio of MBC to MIC for Staphylococcus aureus CIP 54127; type: functional
Escherichia coli [15] = experiment: Antibacterial activity against Escherichia coli CIP 53154 assessed as reduction in bacterial growth by micro-broth dilution method; type: functional
Enterococcus faecalis [16] = experiment: Bactericidal activity against Enterococcus faecalis; type: functional
Pseudomonas aeruginosa [17] = experiment: Ratio of MBC to MIC for Pseudomonas aeruginosa CIP A22; type: functional
Enterococcus faecalis [18] = experiment: Ratio of MBC to MIC for Enterococcus faecalis; type: functional
Enterovirus A71 = experiment: Antiviral activity against human EV71 infected in human RD cells assessed as inhibition of cytopathic effect by microscopy based analysis; type: functional, organism-based; conditions: Enterovirus A
[19] = Cytotoxicity against African green monkey Vero A cells; type: toxicity, cell-based; conditions: chlorocebus sabaeus
Yellow fever virus = experiment: Antiviral activity against Yellow fever virus infected in human Huh-7 cells assessed as inhibition of cytopathic effect by microscopy based analysis; type: functional, organism-based
[20] = Selectivity index, ratio of CC50 for human Huh-7 cells to IC50 for Yellow fever virus infected in human Huh-7 cells; type: toxicity, cell-based; conditions: read-out: Ratio CC50/IC50
Human rhinovirus sp. [21] = experiment: Antiviral activity against Human rhinovirus A2 infected in human HeLa-RH cells assessed as inhibition of cytopathic effect by microscopy based analysis; type: functional, organism-based
Chikungunya virus = experiment: Antiviral activity against CHIKV infected in African green monkey Vero A cells assessed as inhibition of cytopathic effect by microscopy based analysis; type: functional, organism-based

Row | SMILES | MIC (Pseudomonas aeruginosa [1]) | IC50 (Human rhinovirus sp. [2]) | MBC (Escherichia coli [3]) | CC50 [4] | IC50 (Zika virus) | CC50 [6] | Ratio (Escherichia coli [7]) | MIC (Staphylococcus aureus [8]) | MBC (Staphylococcus aureus [9]) | MBC (Pseudomonas aeruginosa [10]) | MIC (Enterococcus faecalis [11]) | CC50 [12] | CC50 [13] | Ratio (Staphylococcus aureus [14]) | MIC (Escherichia coli [15]) | MBC (Enterococcus faecalis [16]) | Ratio (Pseudomonas aeruginosa [17]) | Ratio (Enterococcus faecalis [18]) | IC50 (Enterovirus A71) | CC50 [19] | further results
1 | CCOP(=O)(OCC)C(Nc1ccccc1Br)c1cc(Cn2cc(Cn3c(=O)cc(C)c4cc(Br)ccc43)nn2)ccc1O (stereo not drawn) | 420 µM (≈ 313 µg/mL) | > 100 µM | 850 µM (≈ 634 µg/mL) | 27.9 µM | > 100 µM | > 100 µM | 2.02 | 210 µM (≈ 157 µg/mL) | 420 µM (≈ 313 µg/mL) | 420 µM (≈ 313 µg/mL) | 50 µM (≈ 37.3 µg/mL) | > 100 µM | 18.4 µM | 2 | 420 µM (≈ 313 µg/mL) | 50 µM (≈ 37.3 µg/mL) | 1 | 1 | > 100 µM | 10.1 µM | selectivity ratio [5]: 0.18; IC50 (Yellow fever virus): 10.4 µM; selectivity ratio [20]: 2.68; IC50 (Human rhinovirus sp. [21]): > 0.41 µM; IC50 (Chikungunya virus): 57.3 µM
2 | CCOP(=O)(OCC)C(Nc1ccccc1Cl)c1cc(Cn2cc(Cn3c(=O)cc(C)c4cc(F)ccc43)nn2)ccc1O (stereo not drawn) | 4030 µM (≈ 2580 µg/mL) | > 100 µM | 4030 µM (≈ 2580 µg/mL) | 31 µM | > 100 µM | > 100 µM | 2 | 130 µM (≈ 83.2 µg/mL) | 260 µM (≈ 166 µg/mL) | 4030 µM (≈ 2580 µg/mL) | 30 µM (≈ 19.2 µg/mL) | 28.1 µM | 12.5 µM | 2 | 2020 µM (≈ 1290 µg/mL) | 30 µM (≈ 19.2 µg/mL) | 1 | 1 | > 100 µM | 7 µM | IC50 (Yellow fever virus): 10.3 µM; selectivity ratio [20]: 3.01; IC50 (Human rhinovirus sp. [21]): > 0.41 µM; IC50 (Chikungunya virus): > 100 µM
3 | CCOP(=O)(OCC)C(Nc1ccc(F)cc1)c1cc(Cn2cc(Cn3c(=O)cc(C)c4cc(Br)ccc43)nn2)ccc1O (stereo not drawn) | 1830 µM (≈ 1250 µg/mL) | > 33.3 µM | 920 µM (≈ 630 µg/mL) | 22.2 µM | > 100 µM | > 100 µM | 1 | 450 µM (≈ 308 µg/mL) | 450 µM (≈ 308 µg/mL) | 1830 µM (≈ 1250 µg/mL) | 60 µM (≈ 41.1 µg/mL) | > 33.3 µM | 20.9 µM | 1 | 920 µM (≈ 630 µg/mL) | 60 µM (≈ 41.1 µg/mL) | 1 | 1 | > 100 µM | 25.8 µM | selectivity ratio [5]: 3.79; IC50 (Yellow fever virus): > 100 µM; IC50 (Human rhinovirus sp. [21]): > 0.41 µM; IC50 (Chikungunya virus): 6.8 µM
